The values that follow come from ChEMBL document CHEMBL1681710, “Pyridyl amides as potent inhibitors of T-type calcium channels” (Bioorg Med Chem Lett, 2011).

Structures are written as SMILES. pIC50, pKi: −log10 of the molar value. The source made the active and inactive calls. No cut-off for these calls is given here.

Series [1] addresses T1, Voltage-dependent T-type calcium channel subunit alpha-1I (Homo sapiens, UniProt Q9P0X4). In words: Antagonist activity at Cav3.3 alpha1i expressed in HEK293 cells by depolarized FLIPR assay. Format: functional, cell-based.
Series [2] concerns the target Voltage-gated inwardly rectifying potassium channel KCNH2 (Homo sapiens, UniProt Q12809). As to the kind of experiment: Inhibition of human ERG.
For series [3], the system named is Rattus norvegicus. As to the kind of experiment: Antiepileptic activity in WAG/Rij rat seizure model assessed as reduction in total seizure time measured for 4 hrs at 10 mg/kg, po by radiotelemetric physiologic monitor. Format: functional.
The target of series [4] is T1, Voltage-dependent T-type calcium channel subunit alpha-1I. As to the kind of experiment: Binding affinity to Cav3.3 alpha1i.
Series [5] is described as follows: Binding affinity to L-type Ca2+ channel.
Series [6] relates to Rattus norvegicus. As to the kind of experiment: Effect on sleep architecture in rat assessed as reduction in REM sleep at 3 mg/kg, po up to 4 hrs. The class given is functional, organism-based. More on the design: dose 3 mg/kg.
Series [7] addresses Voltage-dependent T-type calcium channel subunit alpha-1H (Homo sapiens, UniProt O95180). As to the kind of experiment: Inhibition of Cav3.2 alpha1H at -80 mV holding potential by tandard voltage-clamp electrophysiology assay.
Series [8] can be described thus: Half life in dog at 0.5 mg/kg, iv. The class given is ADME, organism-based, Canis lupus familiaris. More on the design: dose 0.5 mg/kg, route intravenous. As to conditions: in vivo.
Series [9] deals with Voltage-dependent R-type calcium channel subunit alpha-1E (Homo sapiens, UniProt Q15878). As to the kind of experiment: Inhibition of R-type Cav2.3 at -80 mV holding potential by tandard voltage-clamp electrophysiology assay.
The nature of series [10]: Plasma clearance in rhesus monkey at 0.5 mg/kg, iv. The class given is ADME, organism-based, Macaca mulatta. More on the design: dose 0.5 mg/kg, route intravenous.
Series [11] addresses Voltage-dependent L-type calcium channel subunit alpha-1C (Homo sapiens, UniProt Q13936). As to the kind of experiment: Inhibition of L-type Cav1.2 at -80 mV holding potential by tandard voltage-clamp electrophysiology assay.
Series [12] is described as follows: Bioavailability in rhesus monkey at 0.5 mg/kg, iv. Format: ADME, organism-based, Macaca mulatta. As to conditions: in vivo.
Series [13] in a line: Volume of distribution at steady state in rhesus monkey at 0.5 mg/kg, iv. Format: ADME, organism-based, Macaca mulatta. More on the design: dose 0.5 mg/kg, route intravenous. The following applies: in vivo.
Series [14] can be described thus: Plasma clearance in dog at 0.5 mg/kg, iv. More on the design: dose 0.5 mg/kg, route intravenous. Format: ADME, organism-based, Canis lupus familiaris.
The nature of series [15]: Plasma clearance in rat at 2 mg/kg, iv.
Series [16] can be described thus: Half life in rat at 2 mg/kg, iv. The following applies: in vivo.
A short description of series [17]: Half life in rhesus monkey at 0.5 mg/kg, iv. The class given is ADME, organism-based, Macaca mulatta. More on the design: dose 0.5 mg/kg, route intravenous. The following applies: in vivo.
Series [18] deals with T1, Voltage-dependent T-type calcium channel subunit alpha-1I. In words: Antagonist activity at Cav3.3 alpha1i expressed in HEK293 cells at -100 mV by standard voltage-clamp electrophysiology assay. The class given is functional, cell-based.
Series [19] addresses Voltage-dependent T-type calcium channel subunit alpha-1G (Homo sapiens, UniProt O43497). In words: Inhibition of Cav3.1 alpha1G at -80 mV holding potential by tandard voltage-clamp electrophysiology assay.
Series [20] is described as follows: Bioavailability in rat at 2 mg/kg, iv and 10 mg/kg, po. The following applies: in vivo.
Series [21] in a line: Volume of distribution at steady state in dog at 0.5 mg/kg, iv. More on the design: dose 0.5 mg/kg, route intravenous. As to conditions: in vivo. Format: ADME, organism-based, Canis lupus familiaris.
The species entered for another series is Mus musculus. In words: Inhibition of high-fat diet-induced weight gain in mouse. Format: functional, organism-based.
Series [22] can be described thus: Bioavailability in dog at 0.5 mg/kg, iv. The class given is ADME, organism-based, Canis lupus familiaris. As to conditions: in vivo.
Series [23] in a line: Volume of distribution at steady state in rat at 2 mg/kg, iv. The following applies: in vivo.
For series [24], the system named is Rattus norvegicus. In words: Effect on sleep architecture in rat assessed as reduction in active awake at 3 mg/kg, po up to 4 hrs. The class given is functional, organism-based. More on the design: dose 3 mg/kg.
In series [25] the test system is Rattus norvegicus. As to the kind of experiment: Effect on sleep architecture in rat assessed as increase in delta sleep at 3 mg/kg, po up to 4 hrs. The class given is functional, organism-based. More on the design: dose 3 mg/kg.
Series [26] deals with Voltage-dependent N-type calcium channel subunit alpha-1B (Homo sapiens, UniProt Q00975). As to the kind of experiment: Inhibition of N-type Cav2.2 at -80 mV holding potential by tandard voltage-clamp electrophysiology assay.
Series [27] relates to Rattus norvegicus. As to the kind of experiment: Effect on sleep architecture in po dosed rat assessed as reduction in active awake up to 4 hrs. The class given is functional, organism-based.
Series [28] in a line: Cmax in non-implanted rat plasma after 1.2 hrs. The class given is ADME, organism-based.
The target in series [29] is Voltage-dependent P/Q-type calcium channel subunit alpha-1A (Homo sapiens, UniProt O00555). In words: Inhibition of P/Q-type Cav2.1 at -80 mV holding potential by tandard voltage-clamp electrophysiology assay.

T1 sequence (Q9P0X4 whole entry): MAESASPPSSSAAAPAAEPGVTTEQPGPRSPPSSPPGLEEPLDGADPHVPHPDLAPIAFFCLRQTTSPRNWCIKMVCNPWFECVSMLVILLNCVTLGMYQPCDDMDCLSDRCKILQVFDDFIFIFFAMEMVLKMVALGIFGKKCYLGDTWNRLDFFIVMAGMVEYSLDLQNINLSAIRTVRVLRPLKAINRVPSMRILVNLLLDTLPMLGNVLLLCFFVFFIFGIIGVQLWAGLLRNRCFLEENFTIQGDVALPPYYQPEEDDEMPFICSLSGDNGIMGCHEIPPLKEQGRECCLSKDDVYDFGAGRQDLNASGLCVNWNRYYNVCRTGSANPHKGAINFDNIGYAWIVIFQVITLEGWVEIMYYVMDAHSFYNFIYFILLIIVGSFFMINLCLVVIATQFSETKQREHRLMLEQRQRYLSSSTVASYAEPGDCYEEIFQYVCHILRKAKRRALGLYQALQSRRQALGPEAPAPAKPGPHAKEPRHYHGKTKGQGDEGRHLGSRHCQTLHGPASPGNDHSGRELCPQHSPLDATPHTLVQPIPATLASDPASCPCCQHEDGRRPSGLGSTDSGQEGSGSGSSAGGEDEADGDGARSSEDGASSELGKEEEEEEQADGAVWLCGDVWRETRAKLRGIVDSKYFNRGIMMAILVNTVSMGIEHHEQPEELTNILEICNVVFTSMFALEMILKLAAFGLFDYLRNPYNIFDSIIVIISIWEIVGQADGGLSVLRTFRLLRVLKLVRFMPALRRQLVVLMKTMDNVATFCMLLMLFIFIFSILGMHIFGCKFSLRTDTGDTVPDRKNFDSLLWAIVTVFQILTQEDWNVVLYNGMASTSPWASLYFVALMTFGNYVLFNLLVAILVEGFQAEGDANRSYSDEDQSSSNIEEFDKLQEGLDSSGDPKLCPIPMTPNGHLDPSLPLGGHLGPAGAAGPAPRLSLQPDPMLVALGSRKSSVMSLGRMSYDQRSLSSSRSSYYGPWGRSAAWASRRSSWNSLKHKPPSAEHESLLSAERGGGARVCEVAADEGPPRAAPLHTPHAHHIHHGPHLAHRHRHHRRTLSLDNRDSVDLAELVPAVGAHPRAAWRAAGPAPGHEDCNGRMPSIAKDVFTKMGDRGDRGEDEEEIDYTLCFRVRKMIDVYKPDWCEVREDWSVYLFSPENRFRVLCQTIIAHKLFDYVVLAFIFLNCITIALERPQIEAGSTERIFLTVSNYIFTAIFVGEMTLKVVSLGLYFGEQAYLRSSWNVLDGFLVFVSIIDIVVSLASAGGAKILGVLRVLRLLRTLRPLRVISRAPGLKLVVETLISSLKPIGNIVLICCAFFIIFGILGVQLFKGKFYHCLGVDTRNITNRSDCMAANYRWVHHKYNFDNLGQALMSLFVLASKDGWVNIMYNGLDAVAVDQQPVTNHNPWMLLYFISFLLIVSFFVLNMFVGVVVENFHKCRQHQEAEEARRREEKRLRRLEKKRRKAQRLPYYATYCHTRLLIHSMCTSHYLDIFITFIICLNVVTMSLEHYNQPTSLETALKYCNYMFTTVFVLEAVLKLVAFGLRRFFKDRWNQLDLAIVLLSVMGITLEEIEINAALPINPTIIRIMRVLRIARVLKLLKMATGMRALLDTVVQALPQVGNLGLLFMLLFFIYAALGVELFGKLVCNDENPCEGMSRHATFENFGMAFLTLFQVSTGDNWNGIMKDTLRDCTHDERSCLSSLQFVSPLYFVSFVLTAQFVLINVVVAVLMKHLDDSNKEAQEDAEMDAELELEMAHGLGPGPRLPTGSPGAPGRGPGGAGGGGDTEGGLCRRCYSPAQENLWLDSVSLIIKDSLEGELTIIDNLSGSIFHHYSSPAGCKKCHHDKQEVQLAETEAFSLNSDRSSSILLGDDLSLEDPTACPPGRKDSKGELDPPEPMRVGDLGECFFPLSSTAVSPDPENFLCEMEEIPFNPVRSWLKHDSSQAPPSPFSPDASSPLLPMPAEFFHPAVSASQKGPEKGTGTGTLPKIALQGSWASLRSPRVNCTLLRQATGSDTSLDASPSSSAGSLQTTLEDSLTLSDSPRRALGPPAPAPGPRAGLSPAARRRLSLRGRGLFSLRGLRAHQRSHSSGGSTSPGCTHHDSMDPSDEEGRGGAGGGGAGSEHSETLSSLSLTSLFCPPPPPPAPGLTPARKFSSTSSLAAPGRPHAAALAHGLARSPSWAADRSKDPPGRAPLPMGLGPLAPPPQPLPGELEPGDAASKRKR
Voltage-gated inwardly rectifying potassium channel KCNH2, sequence (Q12809 whole entry): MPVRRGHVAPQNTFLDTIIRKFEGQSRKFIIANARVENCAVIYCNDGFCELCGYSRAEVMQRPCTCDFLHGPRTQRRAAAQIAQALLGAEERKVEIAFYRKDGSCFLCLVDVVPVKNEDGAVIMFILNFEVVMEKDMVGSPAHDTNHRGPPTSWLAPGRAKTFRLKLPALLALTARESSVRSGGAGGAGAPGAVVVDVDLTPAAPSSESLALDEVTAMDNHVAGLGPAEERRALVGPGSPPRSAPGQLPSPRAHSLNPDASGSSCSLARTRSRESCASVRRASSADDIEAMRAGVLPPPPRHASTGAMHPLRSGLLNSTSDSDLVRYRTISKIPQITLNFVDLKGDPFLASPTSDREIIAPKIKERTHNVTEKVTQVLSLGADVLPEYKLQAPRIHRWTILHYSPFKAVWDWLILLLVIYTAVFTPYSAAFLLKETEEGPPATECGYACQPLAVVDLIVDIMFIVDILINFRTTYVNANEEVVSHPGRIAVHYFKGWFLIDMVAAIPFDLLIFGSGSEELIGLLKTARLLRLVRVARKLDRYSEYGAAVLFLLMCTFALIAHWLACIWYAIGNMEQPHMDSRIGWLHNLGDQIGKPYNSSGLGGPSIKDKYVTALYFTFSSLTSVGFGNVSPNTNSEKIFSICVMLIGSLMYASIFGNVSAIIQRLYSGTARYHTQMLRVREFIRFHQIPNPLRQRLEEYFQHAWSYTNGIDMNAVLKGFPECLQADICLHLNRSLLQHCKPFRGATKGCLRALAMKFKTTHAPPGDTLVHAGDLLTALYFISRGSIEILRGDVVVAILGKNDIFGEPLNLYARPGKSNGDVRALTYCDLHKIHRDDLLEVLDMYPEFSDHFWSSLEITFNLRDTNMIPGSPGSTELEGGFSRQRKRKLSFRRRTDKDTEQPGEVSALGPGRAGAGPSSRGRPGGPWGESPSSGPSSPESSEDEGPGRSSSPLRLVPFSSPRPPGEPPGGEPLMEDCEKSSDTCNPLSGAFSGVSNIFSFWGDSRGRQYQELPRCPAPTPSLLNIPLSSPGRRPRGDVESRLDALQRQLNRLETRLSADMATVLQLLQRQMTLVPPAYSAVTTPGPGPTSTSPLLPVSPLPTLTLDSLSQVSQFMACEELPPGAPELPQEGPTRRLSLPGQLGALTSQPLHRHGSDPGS

With `C[C@H](NC(=O)Cc1ccc(C(C)(C)C)cc1)c1ccccc1`, in [1], the IP is 4680 nM.

Regarding `COc1ccc([C@@H](C)NC(=O)Cc2ccc(S(C)(=O)=O)cc2)nc1`, the IP in [1] was over 10000 nM.

Consider `COc1ccc([C@@H](C)NC(=O)Cc2ccccc2Cl)nc1`, for which, in series [1], the IP was over 5000 nM.

For the compound `CCCOc1ccc([C@@H](C)NC(=O)Cc2ccc(C(C)C)cc2)nc1`, the IP in [1] worked out at 10 nM.

On to `COc1ccc([C@@H](C)NC(=O)Cc2ccc(Cl)cc2)nc1`, for which the IP in series [1] came out at 1330 nM.

As for `COc1ccc([C@@H](C)NC(=O)Cc2ccc(C(C)C)cc2)nc1`, the IP in [1] was found to be 45 nM.

`CC(NC(=O)Cc1ccc(C(C)(C)C)cc1)c1cccnc1` (racemic): the IP in series [1] was found to be 5380 nM.

`COc1ccc([C@@H](C)NC(=O)Cc2ccc(C(C)(C)O)cc2)nc1`: the IP in series [1] came out at 1130 nM.

On to `COc1ccc([C@@H](C)NC(=O)Cc2ccc(Cl)c(Cl)c2)nc1`, for which the IP in series [1] was 252 nM.

For the compound `COC(=O)c1ccc(CC(=O)N[C@H](C)c2ccc(OC)cn2)cc1`, the IP in series [1] is 1450 nM.

For the compound `C[C@@H](NC(=O)Cc1ccc(C2CC2)cc1)c1ccc(O)cn1`, in [1], the IP was found to be 1720 nM.

In the case of `CC(NC(=O)Cc1ccc(C(C)(C)C)cc1)c1ccccc1Cl` (racemic), the IP in [1] is 332 nM.

Take `CC(C)c1ccc(CC(=O)N[C@H](C)c2ccc(OCc3ccccc3)cn2)cc1`: in series [1], the IP turned out to be 16 nM.

With `C[C@@H](NC(=O)Cc1ccc(C(C)(C)C)cc1)c1ccccc1`, the IP in series [1] stood at 235 nM.

With `COc1ccc([C@@H](C)NC(=O)Cc2ccc(C3CC3)cc2)nc1`, in series [1], the IP came to 70 nM.

As to `COc1ccc([C@@H](C)NC(=O)Cc2cccc(Cl)c2)nc1`, the IP in [1] was determined as 2780 nM.

On to `CC(NC(=O)Cc1ccc(C(C)(C)C)cc1)c1ccncc1` (racemic), for which, in [1], the IP is over 10000 nM.

On to `COc1ccc([C@@H](C)NC(=O)Cc2ccccc2)nc1`, for which, in series [1], the IP is over 10000 nM.

For the compound `COc1ccc(CC(=O)N[C@H](C)c2ccc(OC)cn2)cc1`, the IP in series [1] was determined as 1740 nM.

As for `COc1ccc([C@@H](C)NC(=O)Cc2ccc(C(C)(C)C)cc2)nc1`, the pIC50 in series [2] and in [5] was under 5.00 each time. In addition, the inhibition in vivo at 10 mg/kg in the series on Rattus norvegicus [3] was 49%. The pKi in series [4] was 8.30. The IP in [1] is 22 nM.

In the case of `COc1ccc([C@@H](C)NC(=O)Cc2ccc(F)cc2)nc1`, the IP in [1] is over 10000 nM.

`C[C@@H](NC(=O)Cc1ccc(C2CC2)cc1)c1ccc(OCC(F)(F)F)cn1`: the result in the series on Rattus norvegicus [6], in the series on Rattus norvegicus [24] and with Rattus norvegicus [25] was Active. Moreover, the pIC50 in [2] was under 5.00; in [7], 7.04; in series [9] it was under 4.52; in series [11], under 4.52; in [18] it was 5.43; in series [19] it was 7.05. The values for the pIC50 in series [5], in [26] and in [29] were under 5.00, under 4.52 and under 4.52, respectively. Also, the half-life is 11 h in series [8], 1.5 h in series [16] and 0.9 h in [17]. Further, the clearance in series [10] stood at 17 mL/min/kg; in series [14], 0.9 mL/min/kg; in series [15], 6 mL/min/kg. The results for the bioavailability in [12], in [20] and in [22] were 7%, 68% and 43%, respectively. The values for the Vd in series [13], in series [21] and in series [23] were 0.9 L/kg, 0.7 L/kg and 0.8 L/kg, respectively. The inhibition in vivo at 10 mg/kg in the series on Rattus norvegicus [3] was 87%. For the same compound, the pKi in series [4] is 8.92. In addition, in series [1], the IP was determined as 6 nM. The inhibition result in the series filed under Mus musculus is “Active”. Further, the Activity result in the series on Rattus norvegicus [27] was “Dose-dependent effect”. In [28], this compound came in with a Cmax of 4 µM.

With `CC(C)c1ccc(CC(=O)N[C@H](C)c2ccc(O)cn2)cc1`, the IP in series [1] turned out to be 920 nM.

For `C[C@H](c1ccccc1)N(C)C(=O)Cc1ccc(C(C)(C)C)cc1`, the IP in series [1] is over 10000 nM.

Turning to `COc1ccc([C@@H](C)NC(=O)Cc2ccc(C#N)cc2)nc1`, in series [1], the IP is over 5000 nM.

Consider `COc1ccc([C@@H](C)NC(=O)Cc2ccc(C(C)(C)C)cc2)cc1`, for which the IP in series [1] was found to be 146 nM.

In the case of `C[C@@H](NC(=O)Cc1ccc(C(C)(C)C)cc1)c1ccc(Cl)cc1`, the IP in series [1] turned out to be 123 nM.

For the compound `CC(C)(C)c1ccc(CC(=O)NC(C)(C)c2ccccc2)cc1`, the IP in series [1] stood at 5480 nM.

Regarding `C[C@@H](NC(=O)Cc1ccc(C2CC2)cc1)c1ccc(OCc2ccccc2)cn1`, in series [1], the IP came out at 21 nM.

In the case of `CC(C)c1ccc(CC(=O)N[C@H](C)c2ccc(OCC(F)(F)F)cn2)cc1`, the IP in series [1] is 5 nM.

`COc1ccc([C@@H](C)NC(=O)Cc2ccc(Oc3ccccc3)cc2)nc1`: the IP in [1] is 439 nM.

As for `CCCOc1ccc([C@@H](C)NC(=O)Cc2ccc(C3CC3)cc2)nc1`, the IP in series [1] worked out at 11 nM.

Regarding `COc1cccc([C@@H](C)NC(=O)Cc2ccc(C(C)(C)C)cc2)c1`, the IP in series [1] was determined as 146 nM.

For `C[C@@H](NC(=O)Cc1ccc(C(C)(C)C)cc1)c1ccc(Cl)cn1`, the IP in [1] amounted to 30 nM.

Regarding `CC(NC(=O)Cc1ccc(C(C)(C)C)cc1)c1ccccn1` (racemic), the IP in series [1] was 427 nM.

As usually defined, the pIC50 is the negative decadic logarithm of the IC50, by convention in mol/L. As a reminder, the inhibition in vivo is the change of the read-out against control, counted positive when it falls. For orientation: pKi means the negative decadic logarithm of the Ki, by convention in mol/L. A word on the half-life: it is the time in which the quantity being followed falls by half. By clearance is commonly meant the rate of elimination divided by the concentration. In general, bioavailability refers to dose-corrected exposure relative to a reference, in per cent. For orientation: Vd means a proportionality between amount in the body and measured concentration, not a real space. What is called Cmax is the peak of the concentration-time curve.
